Measurements as given in patent publication US7326540B2, “Methods for identifying compounds that modulate stabilization of secretase-associated proteins” (priority 2003, dated 2008).
Where a SMILES comes first, the peptide text is derived from it. The star is where a group is joined. Cbz = O=C(OCc1ccccc1)*; CH2F = FC*

Columns and labels:
[1] = test system: CHO cells overexpressing APP751 and PS1 WT; test: Induction of apoptosis (caspase 3 activation, TUNEL); type: cell-based, Chinese Hamster; conditions: STS 1 μM, after 6 hrs
β-secretase = test: C99 levels by Western blot (WO2) in CAB cells; type: cell-based, Chinese Hamster; conditions: STS-induced apoptosis, CHO cells expressing APP751 and BACE (CAB)
Procedure: (§1) Chinese Hamster Ovary (CHO) cells expressing APP751 and BACE (CAB), CHO cells expressing full-length APP and wild-type PS1 (CHO-APP751/PS1) or expressing C99 and wild-type PS1 (CHO-CC99/PS1), H4 human neuroglioma cells expressing APP751 (H4-APP751), mouse embryonic fibroblast (MEF), embryonic stem (ES) cells, and human epithelial A431 cells were grown as described previously (Marambaud, P. et al., Embo J 21, 1948-56 (2002); Cai, H. et al., Nat Neurosci 4, 233-4 (2001); Sato, N. et al., Nat Cell Biol 2, 863-70 (2000); Puglielli, L., Ellis, B. C., Saunders, A. J. & Kovacs, D. M., J Biol Chem 278, 19777-83 (2003); Wolfe, M. S. et al., Nature 398, 513-7 (1999)). For the induction of apoptosis, we used staurosporine or etoposide (Calbiochem (EMD Biosciences, San Diego, Calif.)). For Aβ measurements, cells were seeded at the density of 0.5×10^6 cells per well in 6 well plates. After 48 hours, cells were treated with either STS (1 μM) for 6 hours. In order to inhibit caspase activation a sister plate of cells was pre-treated with zVAD (1001M, Enzyme Systems Products) for 1 hour before STS treatment. For time-course experiments, cells were seeded at the density of 2×10^6 cells per 100 mm dish and treated with STS (1 μM) or etoposide (100 μg/mL). At different time points (0, 3, 6, 9, 12 and 24 hours), the cells were scraped, centrifuged and then lysed in buffer containing 1% NP40. […]

γ-secretase = test: Secreted Aβ1-total ELISA in CHO-CC99/PS1 cells; type: cell-based, Chinese Hamster; conditions: STS-treated CHO-CC99/PS1 cells, 6 hours
Procedure: as §1, with “hours.” for “hours. In order to inhibit caspase activation a sister plate of cells was pre-treated with zVAD (1001M, Enzyme Systems Products) for 1 hour before STS treatment. For time-course experiments, cells were seeded at the density of 2×10^6 cells per 100 mm dish and treated with STS (1 μM) or etoposide (100 μg/mL). At different time points (0, 3, 6, 9, 12 and 24 hours), the cells were scraped, centrifuged and then lysed in buffer containing 1% NP40.”
Secreted Aβ1-total was measured in the conditioned media of untreated cells or of cells treated with STS or STS plus zVAD using a sensitive ELISA (Wolfe, M. S. et al., Nature 398, 513-7 (1999). At least three different experiments were carried out and each experiment was performed at least in triplicate. […]

[2] = test system: γ-secretase complex proteins; test: γ-secretase complex protein levels by Western blot in A431 cells; type: cell-based, human; conditions: after 6 hours of STS treatment
Procedure: as §1

E-cadherin = E-cadherin proteolysis in A431 cells during STS-induced apoptosis (Western blot, C36 antibody); type: cell-based, human; conditions: zVAD-FMK 100 μM pre-incubated 30 min, then STS 6 hours
Procedure: FIG. 11 provides digitized images and graphs showing that apoptosis enhances γ-secretase activity and levels of γ-secretase complex proteins. FIG. 11a: Apoptosis was induced in CAB, CHO-CC99/PS1 and CHO-APP 751/PS1 by STS treatment for 6 hours with or without zVAD (100 μM). Secreted Aβ1−total was measured by ELISA. […] Each bar represents the mean and SD of quadruplicate determinations. FIG. 11b: Western blot analysis with the antibody, A8717, detected endogenous APP-FL and overexpressed C99 in CHO-CC99/PS1cells, while overexpressed APP-FL and C83 were detected in CHO-APP751/PS1 cells. FIG. 11c: A431 human epithelial cells were pre-incubated for 30 min in the absence (−) or presence (+) of zVAD-FMK (100 μM), L-685,458 (0.5 μM) or GM6001 (2.5 μM). Cells were then treated with STS for 6 hours to induce apoptosis, and cell extracts were probed with anti-E-cadherin C36 antibody. FIG. 11d: Protein levels of γ-secretase complex components were monitored by Western blotting employing the anti-nicastrin, Ab14, PNT2, H2D2 antibodies. Densitometry analysis was performed using NIH image software. Each bar represents the mean and SEM of at least three experiments. FIG. 11e: Nicastrin was transiently transfected in the A431 cells. Western blot analysis for E-cadherin and γ-secretase complex component was performed as in FIG. 11c and FIG. 11d β-tubulin was used as loading control.
To confirm that apoptosis/caspase activation increases γ-secretase activity, we next examined the proteolysis of E-cadherin, another γ-secretase substrate (Marambaud, P. et al., Embo J21, 1948-56 (2002)) during apoptosis. We confirmed that caspase activation enhanced the production of E-Cad/CTF1 (Steinhusen, U. et al., J Biol Chem 276, 4972-80 (2001)), E-Cad/CTF2 (Marambaud, P. et al., 2002) (˜2- and 3-fold increase by densitometry analysis, respectively), and generated E-Cad/CTF3 (Marambaud, P. et al., 2002) (FIG. 11c). […]

[3] = test system: γ-secretase complex proteins; test: γ-secretase complex protein levels by Western blot in H4 cells; type: cell-based, human; conditions: zVAD treatment
Procedure: Protein levels of PS1, nicastrin, Pen2 and Aph1A (components of the γ-secretase complex) were determined by Western blot (WB) analysis in H4 cells. […] The immature form of nicastrin appeared to be increased earlier (6 hrs) concurrently with caspase-3 activation (FIG. 5A). Furthermore, PS1-NTF, PS1-CTF, Pen2 and Aph1A were also up regulated (FIG. 5A). STS treatment also led to the generation of a caspase-mediated fragment of PS1-CTF (indicated by an arrow as a PS1-CTF). […] As a control for protein loading, the same blot was reprobed with an anti-Cu, Zn-SOD Ab showing that Cu, Zn-SOD protein levels were not increased.

| SMILES | Apoptosis (caspase 3 activated, TUNEL positive) [1] | levels of C99 (β-secretase) | Aβ1-total increase compared to untreated cells (γ-secretase) | immature nicastrin levels increase [2] | protein levels of PS1, Pen-2 and Aph1a [2] | generation of E-Cad/CTF3 (E-cadherin) | upregulation of γ-secretase complex proteins during STS-induced apoptosis [3] |
| --- | --- | --- | --- | --- | --- | --- | --- |
| CN[C@@H]1C[C@H]2O[C@@](C)([C@@H]1OC)n1c3ccccc3c3c4c(c5c6ccccc6n2c5c31)C(=O)NC4 [STS, staurosporine] | induced apoptosis | increased | ~1.5 fold | ~1.5 fold | unchanged | – | – |
| COC(=O)C[C@H](NC(=O)[C@H](C)NC(=O)[C@@H](NC(=O)OCc1ccccc1)C(C)C)C(=O)CF [zVAD] (Cbz-Val-Ala-Asp(OMe)-CH2F) | – | – | – | – | – | inhibited | prevented upregulation |
